Data set [1] in a line: Caco-2 permeability assay (bi-directional). To be noted: human; for recovery at 120 min / recovery at 120 min, 100 μM: Caco-2, pH 7.4, Mean % Recovery; for recovery at 120 min: positive control. The protocol:
(§1) Cells were seeded on to Millipore Multiscreen Transwell plates at 1×10^5 cells/cm^2. The cells were cultured in DMEM and media was changed every two or three days. On day 20, the permeability study was performed. […] On the day of the assay, the monolayers were prepared by rinsing both basolateral and apical surfaces twice with Hanks Balanced Salt Solution (HBSS) at the desired pH warmed to 37° C. Cells were then incubated with HBSS at the desired pH in both apical and basolateral compartments for 40 min to stabilise physiological parameters.
(§2) The fluorescent integrity marker lucifer yellow was also included in the dosing solution. Analytical standards were prepared from test compound water dilutions and transferred to buffer, maintaining a ≤1% v/v water concentration. Assay buffer was composed of supplemented HBSS pH 7.4.
(§3) For assessment of apical to basolateral (A2B) permeability, HBSS was removed from the apical compartment and replaced with test compound dosing solution. The apical compartment insert was then placed into a companion plate containing fresh buffer (containing ≤1% v/v Water). For assessment of B2A permeability, HBSS was removed from the companion plate and replaced with test compound dosing solution. Fresh buffer (containing ≤1% v/v Water) was added to the apical compartment insert, which was then placed into the companion plate.
(§4) At 120 min, the apical compartment inserts and the companion plates were separated, and apical and basolateral samples diluted for analysis. Test compound permeability was assessed in duplicate. Compounds of known permeability characteristics were run as controls on each assay plate.
(§5) Test and control compounds were quantified by LC-MS/MS cassette analysis using a 7-point calibration with appropriate dilution of the samples. Cyprotex generic analytical conditions were used. The starting concentration (CO) was determined from the dosing solution and the experimental recovery calculated from CO and both apical and basolateral compartment concentrations.
(§6) The integrity of the polarised cell monolayers throughout the experiment was checked by monitoring lucifer yellow permeation using fluorometric analysis. Permeation of this paracellular marker is low if monolayers have not been damaged. […] If this was not the case, then the result from the affected monolayer was excluded.
(§7) The determined concentration (nM≡pmol/mL) of each test sample receiver well is multiplied by the volume of the receiver compartment (apical=0.09 mL, basolateral=0.210 mL) to calculate the amount (pmol) of probe substrate permeating the monolayer.
(§8) Where dQ/dt is the rate of permeation of the drug across the cells, C0 is the donor compartment concentration at time zero and A is the area of the cell monolayer. C0 was obtained from analysis of the dosing solution.
(§9) An efflux ratio (ER) was calculated from mean A to B and B to A data. This is derived from:
(§10) Percentage recovery (mass balance) of the test compound or positive control substrate was calculated by dividing the sum of the amount (pmol) in the receiver and donor compartments post-incubation by the amount in the initial donor solution at time zero (C0) and expressing as a percentage.
(§11) The insert was inserted into the well of a plate to form an Apical chamber (above cells) and basolateral chamber (below cells), with a permeable membrane between the two layers. Compound was then added to either the apical or basolateral chamber and the passage of it monitored into the other chamber. Transfer of the test compound from the apical to basolateral chamber was indicative of cellular uptake, simulating transition of the compound from the intestinal lumen to the bloodstream by uptake receptors (Direction A). […] An Efflux ratio was then calculated from the values obtained for A2B and B2A transmission.
For orientation: Caco-2 monolayers are a common model of the intestinal barrier.

A further data set deals with Caco-2 cells. Description: Caco-2 permeability assay (bi-directional). The following applies: for Papp Rep 1 / Papp Rep 2 / Papp Mean: 120 min, pH 7.4. The protocol:
as §1, §2, §3, §4, §5, §6, §7, §8, §9, §10, §11

The conditions of data set [2]: known characteristic of control compound; cited from earlier work.
Data set [3] relates to Neonatal rat cardiomyocytes. Description: Screening synthetic peptides for alterations to rat cardiomyocyte beat rates. It is filed as cell-based. The protocol:
(§12) The baseline beat rate of neonatal rat and human IPSC-derived cardiomyocytes to be treated with the three synthetic fractions were determined by video microscopy of each well in triplicate using a microscope camera. Average beats/min were calculated from the triplicate readings of three separate wells (n=9). Aliquots of each peptide were taken to treat neonatal rat cardiomyocyte cells at doses of 100, 10, 1 and 0.1 μg/ml. Cells were returned to a humidified incubator at 37° C., 5% CO2 for 2 h. After 2 h the beat rate of the treated cardiomyocyte cells was reassessed using the same method used to obtain the pre-dosing beat data. This process was repeated 24 h after the addition of the synthetic peptides.

Data set [4] deals with Neonatal rat cardiomyocytes. Description: Screening synthetic peptides for thermal stability (rat cardiomyocyte beat rate after heating at 100° C.). It is filed as cell-based. To be noted: peptide heated to 100° C. The protocol: Thermal stability of the three designed synthetics peptides was investigated. The baseline beat rate of neonatal rat cardiomyocytes to be treated with the synthetic fractions were determined by video microscopy of each well in triplicate using a microscope camera. Average beats/min were calculated from the triplicate readings of three separate wells (n=9). Aliquots of each peptide were heated in a heat block at 100° C. before being used to treat rodent cardiomyocyte cells at doses of 100, 10, 1 and 0.1 μg/ml. Cells were returned to the incubator at 37° C., 5% CO2 for 2 h. After 2 h the beat rate of the treated cardiomyocyte cells was reassessed using the same method used to obtain the pre-dosing beat data. This process was repeated 24 h after the addition of the synthetic peptides. The data of the fold changes in cardiomyocyte beat rate following treatment with the heated synthetic fractions were compared to previously obtains fold-changes in beat rate of the unheated synthetic peptides to assess their thermal stability.

Data set [5] has as its system Human IPSC-derived cardiomyocytes. Description: Screening synthetic peptides for alterations to human IPSC-derived cardiomyocyte beat rates. The class given is cell-based. To be noted: 2 h; dose not stated in the sentence (no increase at 0.1, 1 and 10 μg/ml). The protocol: as §12

Where no end group is shown, it is not given here.

On to `Cc1cc(=O)n(-c2ccccc2)n1C` [Antipyrine, antipyrine], for which, in data set [1] (Caco-2, pH 7.4), the Papp A→B at 120 min is 47.1 ×10⁻⁶ cm/s, the apparent permeability from basolateral to apical (Papp B→A) at 120 min came to 39.6 ×10⁻⁶ cm/s and the efflux ratio at 120 min is 0.84. Further, in data set [1] (A2B), the recovery at 120 min was 90.5%. The same compound had a recovery at 120 min in data set [1] (B2A) of 87.8%. Further, in the data set with Caco-2 cells (A2B, positive control), the “Papp Rep 1” value is 47.2 ×10^−6 cms^−1 and the “Papp Rep 2” value was 46.9 ×10^−6 cms^−1. In the data set on Caco-2 cells (B2A, positive control), the “Papp Rep 1” value is reported as 38.0 ×10^−6 cms^−1 and the “Papp Rep 2” value was 41.1 ×10^−6 cms^−1. Besides, the human absorption in data set [2] is 97%.

Take LKCHKLIPIAWKTK [Synthetic peptide 3]: the “fold-increases to beat rate, rat cardiomyocytes” value in data set [3] (100 μg/ml, 2 h) was “three-fold”. Besides, the “peak increases in rat neonatal cardiomyocyte beat rates” value in data set [3] (peak over 0.1-100 μg/ml) worked out at 3 fold. Also, the “increases to beat rate, rat cardiomyocytes” value in data set [3] (three lower tested concentrations, 2 h) is recorded as “around two-fold”. Further, the “maximum fold-increase to beat rate following heating” value in data set [4] stood at 2.5 fold.

As for LKCHKLVPPVWKT [Synthetic peptide 1], the “increase to the beat rate of human cardiomyocytes over pre-dosing beat rate” value in data set [5] is recorded as 1.5 fold. Further, the efflux ratio at 120 min, 100 μM in data set [1] (Caco-2, pH 7.4) worked out at 0.137. The compound further gave a recovery at 120 min, 100 μM in data set [1] (A2B) of 45.5%. This compound had a recovery at 120 min, 100 μM in data set [1] (B2A) of 96.6%. For the same compound, in the data set on Caco-2 cells (100 μM), the “toxicity to the Caco-2 cells (lucifer yellow monolayer integrity)” value is listed as “not observed”. Moreover, the “transporter substrate assessment from the efflux ratio” value with Caco-2 cells (100 μM, efflux ratio 0.137) was “not a substrate for efflux transporters but could be a possible substrate for uptake transporters”. Also, in the data set on Caco-2 cells (A2B, 100 μM), the “Papp Mean” value is 4.60 ×10^−6 cms^−1, the “Papp Rep 1” value is 6.48 ×10^−6 cms^−1 and the “Papp Rep 2” value was 2.73 ×10^−6 cms^−1. Besides, in the data set on Caco-2 cells (B2A, 100 μM), the “Papp Mean” value is listed as 0.633 ×10^−6 cms^−1, the “Papp Rep 1” value is reported as 0.681 ×10^−6 cms^−1 and the “Papp Rep 2” value is 0.584 ×10^−6 cms^−1.

In general, Papp A→B refers to how fast a substance crosses the layer from the apical side. Read a low Papp A→B as poor permeation. What is called Papp B→A is the apparent permeability from the basolateral to the apical side of a cell layer. The term efflux ratio denotes the permeability from basolateral to apical divided by that in the opposite direction, in the common usage.

The values above are taken from patent publication US20250204535A1, “Rodenticide” (priority 2022, published 2025).
